The source of these data is patent publication US7704686B2, “Methods of identifying immunoregulatory agents, immunoregulatory agents, and uses thereof” (Toudai TLO, Ltd., priority 2003, dated 2010).

Holding throughout (format): cell-based, human
For one experiment, the system named is caveolin-1. The experiment is described as follows: Western blot of caveolin-1 in siRNA-transfected monocytes. The conditions noted are these: 48 hrs after transfection, HVJ-E vector. The procedure: Lysates were generated with RIPA lysis buffer (1% NP-40, 0.5% sodium deoxycholate, 0.1% SDS, 5 mM EDTA, 10 mM Tris-HCl (pH 7.4), 0.15 M NaCl, 1 mM PMSF, 0.5 mM NaF, 10 μg/ml aprotinin and 0.02 mM Na3VO4) from 1.0×10^7 of THP-1 cells incubated with recombinant soluble CD26 (rsCD26) or 1.0×10^7 of TT-loaded monocytes stimulated with rsCD26-coated beads. Then, lysates were clarified by 15,000×g for 30 min. Immunoprecipitates (IPs) were performed by incubating lysates with 2 μg of control immunoglobulins (Ig) and protein G-sepharose beads (Amersham Pharmacia) at 4° C. for 1 h. After centrifugation, supernatants were incubated with 2 μg of specific Ig at 4° C. for 2 h, followed by addition of protein G-sepharose beads for an overnight incubation. After washing four times with RIPA lysis buffer, beads were submitted to SDS-PAGE and Western blot analysis.
To design target-specific siRNA duplexes, the present inventors selected sequences of the type AA(N19) (N, any nucleotide) from the open reading frame of human caveolin-1 (accession number=NM 001753) (Elbashir, et al., 2001). Moreover, the inventors added the sequences to the 2-nucleotide 3′ overhangs of 2′-deoxythymidine (dTdT), in order to generate a symmetric duplex with respect to the sequence composition of the sense and antisense 3′ overhangs. These symmetric 3′ overhangs were reported to help to ensure that the siRNA were formed with approximately equal ratios of sense and antisense target RNA-cleaving siRNA (Elbashir, et al., 2001). Therefore, the present inventors selected two target sequences from 81 to 101 (ss1) and […] (ss2) downstream of the start codon of caveolin-1 mRNA (sense1 siRNA (ss1-siRNA): 5′[…] CAGACdTdT (SEQ ID NO: 6), and sense2 siRNA (ss2-siRNA): 5′ AAGGAGA […] dTdT (SEQ ID NO: 7)). Moreover, mis-siRNA at 4 nucleotides was prepared to examine non-specific effects of siRNA duplexes (mis-siRNA: 5′ […] GCAGACdTdT (SEQ ID NO: 8)). To visualize the efficiency of transfection, the inventors also prepared Texas red-conjugated missense siRNA (mis-siRNA-TR). […]
A general note: Immunoblotting shows a protein as a band on a membrane.

The next experiment has as its system CD86. The experiment can be described thus: Flow cytometry of surface CD86 on TT-loaded monocytes stimulated with CD26-coated beads. The conditions noted are these: siRNA-transfected monocytes, stimulated with CD26 wt-coated beads. How it is done:
Freshly purified monocytes were cultured in Macrophage-SFM media for 24 h to diminish the effect of serum, and were preincubated with TT at a concentration of 0.5 μg/ml for an additional 24 h. After being washed with PBS, 1.0×10^6 of TT-loaded monocytes were stimulated for indicated periods with […] particles of polystyrene latex beads (Molecular Probes) coated with rsCD26 wt or rsCD26 del 201-211 (1.0 μg/ml). Stimulated monocytes were subjected to confocal laser microscopy, immunoprecipitation assay, Western blotting analysis, or flow cytometry (FCM).
In experiments assessing the expression of CD86 on purified monocytes after preincubation with or without TT (0.5 μg/ml) for 24 hours, following incubation with rsCD26-coated beads for 24 h, FITC-conjugated CD86 mAb (10 μg/ml) were used with PE-conjugated anti-CD14 (10 μg/ml) and Cy Chrome-conjugated CD45 (10 μg/ml) to gate exclusively on the monocyte population. In experiments assessing the effect of siRNA against caveolin-1 in monocytes, purified monocytes were transfected with siRNA as described below, following incubation with rsCD26-coated beads for 24 h, and stained as described above.
(§1) Flow-cytometric analysis of 10,000 viable cells was conducted on Becton-Dickinson FACScalibur. Each experiment was repeated at least three times, and the results were provided in the form of a histogram of a representative experiment, or increased mean percent±standard error (SE) of mean-fluorescent intensity (MFI), compared to control or untreated cells.
To design target-specific siRNA duplexes, the present inventors selected sequences of the type AA(N19) (N, any nucleotide) from the open reading frame of human caveolin-1 (accession number=NM 001753) (Elbashir, et al., 2001). Moreover, the inventors added the sequences to the 2-nucleotide 3′ overhangs of 2′-deoxythymidine (dTdT), in order to generate a symmetric duplex with respect to the sequence composition of the sense and antisense 3′ overhangs. […]

In experiment [1] the test system is caveolin-1 on cell surface of monocytes. The experiment is described as follows: Flow cytometric detection of cell surface caveolin-1 on monocytes. The conditions noted are these: Filipin 1.0 μg/ml preincubation 30 min, then with or without TT. The procedure:
For assessment of cell surface caveolin-1 exposure, after purified monocytes were treated with TT (0.5 μg/ml) for 0, 6, 12, 24, and 48 h, cells were washed with ice-cold PBS three times, and stained with anti-caveolin-1 antibody (5 μg/ml) for 60 min at 4° C., followed by staining with FITC conjugated anti-rabbit Ig antibody (1:200) for 60 min at 4° C. To disturb caveolae, purified monocytes were treated with Filipin (1.0 μg/ml, Sigma-Aldrich) for 30 min at 37° C. Cells were then subjected to TT loading and to staining caveolin-1 as described above.
as §1

Experiment [2] deals with conjugation of activated T cells and TT-loaded monocytes. The experiment can be described thus: T cell-APC conjugation assay. The conditions noted are these: monocytes preincubated with Filipin 30 min, then with or without TT. How it is done: For T cell-APC conjugation assay as described elsewhere (Lee, et al., 2002), 1.0×10^5 of activated T cells were mixed with 1.0×10^5 of purified monocytes that had been pulsed with or without TT (0.5 μg/ml for indicated time periods), with further centrifugation. Thirty minutes later, cell mixtures were attached to microslide glass (Matsunami Glass Inc., Tokyo, Japan) coated with poly-L-lysine, and fixed with 4% paraformaldehyde in PBS for 15 min at room temperature. Cells were blocked with mouse and rabbit Ig isotypes (1 μg/ml) for 30 min at 4° C., followed by incubation with anti-CD26 mAb and anti-caveolin-1 rabbit pAb (each of 10 μg/ml) for 60 min at 4° C., then washed with ice-cold PBS twice and incubated with FITC conjugated anti-mouse Ig and Texas red conjugated anti-rabbit Ig antibodies (1:200) for 60 min at 4° C. Cells were mounted in coverslips with Antifade Prolong kit. Conjugates were first identified by direct observation under differential interference contrast and then confirmed by detecting the green fluorescence of anti-CD26 mAb in T cells and the red fluorescence of anti-caveolin-1 pAb in monocytes. The proportion of T cell-APC conjugation was calculated by random choice of 500 different cells in a coverslips from five independent experiments. […]

Turning to 5′ AAGGAGA UCGACCUGGUCAAC dTdT [ss2], in the experiment on caveolin-1, the “caveolin-1 expression in monocytes (knock down)” value (from here on “caveolin-1 expression”) was “effectively knocked down”. Moreover, the “effect on CD86 upregulation in TT-loaded monocytes” value (from here on “effect on CD86 upregulation”) in the experiment on CD86 is “inhibited”.

For “5′ UACAAGAAGGGCAUG GCAGACdTdT [mismatched siRNA]”, in the experiment on caveolin-1, the “caveolin-1 expression” value was “not significantly knocked down”. The “effect on CD86 upregulation” value in the experiment with CD86 was “did not exhibit this inhibitory effect”.

Consider 5′AACAACAAGGCCAUGG CAGACdTdT [ss1], for which the “caveolin-1 expression” value in the experiment with caveolin-1 is “effectively knocked down”. Also, the “effect on CD86 upregulation” value in the experiment with CD86 was “inhibited”.

For the molecule `CCCCC[C@@H](O)[C@H]1C(=O)O[C@H](C)[C@@H](O)/C=C/C=C/C=C/C=C/C=C(\C)[C@@H](O)C[C@H](O)C[C@H](O)C[C@H](O)C[C@H](O)C[C@H](O)C[C@@H]1O` [Filipin], the “caveolin-1 on cell surface of monocytes” value in experiment [1] is listed as “not detected”. The “T cell-monocyte cell conjugation” value in experiment [2] was “not detected”.
